Converted amounts (≈) assume the structure as drawn.
Tests used:
[1] = tested on: RPMI8226 (multiple myeloma); test: MTT growth inhibition of multiple myeloma cells, 72 h; type: cell-based, human; settings: Homo sapiens, RPMI 8226, 72 h; for IC50: read-out: IC50; for IC90: read-out: IC90
Procedure, shortened: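 RPMI8226 myeloma cells, 6000 per well in 1640 medium with 10% FBS, exposed to compounds at a range of concentrations (diluted from 10 mg/mL DMSO stock) for 72 h at 37° C, 5% CO2. Viable cells then determined by MTT.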

[2] = tested on: Hep-2 (laryngeal carcinoma); test: MTT growth inhibition of human solid tumor cells, 72 h; type: cell-based; settings: Homo sapiens, HEp-2, 72 h; for IC50: read-out: IC50; for IC90: read-out: IC90
Procedure, shortened: (§1)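 4000 cells per well in DMEM high glucose with 10% FBS were grown for 24 h at 37°C, 5% CO2. Compounds were diluted from a 10 mg/mL DMSO stock, and cells were exposed for 72 h; viable cells measured by MTT.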

A549 (human lung cancer) = test: as above; type: cell-based; settings: Homo sapiens, A549, 72 h; for IC50: read-out: IC50; for IC90: read-out: IC90
Procedure, shortened: as §1

[3] = tested on: CaES-17 (esophageal cancer cell); test: as above; type: cell-based; settings: Homo sapiens, CaEs17, CaEs-17, 72 h; for IC50: read-out: IC50; for IC90: read-out: IC90
Procedure, shortened: as §1

[4] = tested on: Hep G2 (human liver cancer cell); test: as above; type: cell-based; settings: Homo sapiens, HepG2, Hep G2, 72 h; for IC50: read-out: IC50; for IC90: read-out: IC90
Procedure, shortened: as §1

[5] = tested on: Becap37 (human breast cancer cell); test: as above; type: cell-based; settings: Homo sapiens, Becap-37, 72 h; for IC50: read-out: IC50; for IC90: read-out: IC90
Procedure, shortened: as §1

[6] = tested on: PANC-1 (pancreatic cancer); test: as above; type: cell-based; settings: Homo sapiens, PANC-1, 72 h; for IC50: read-out: IC50; for IC90: read-out: IC90
Procedure, shortened: as §1

PC-3 (prostate cancer) = test: as above; type: cell-based; settings: Homo sapiens, PC-3, 72 h; for IC50: read-out: IC50; for IC90: read-out: IC90
Procedure, shortened: as §1

[7] = tested on: RKO (human colon adenocarcinoma cell); test: as above; type: cell-based; settings: Homo sapiens; for IC50: read-out: IC50; for IC90: read-out: IC90
Procedure, shortened: as §1

MG63 (osteosarcoma) = test: as above; type: cell-based; settings: for IC50 / IC90: Homo sapiens, MG-63, 72 h; for IC50: read-out: IC50; for IC90: read-out: IC90
Procedure, shortened: as §1

[8] = tested on: Hela (human cervical cancer cell); test: as above; type: cell-based; settings: Homo sapiens, HeLa, 72 h; for IC50: read-out: IC50; for IC90: read-out: IC90
Procedure, shortened: as §1

[9] = tested on: SK-OV-3 (ovarian cancer cell); test: as above; type: cell-based; settings: Homo sapiens, SK-OV-3, 72 h; for IC50: read-out: IC50; for IC90: read-out: IC90
Procedure, shortened: as §1

[10] = tested on: U87 MG (malignant glioma cell); test: as above; type: cell-based; settings: Homo sapiens, U-87 MG, U87-MG, 72 h; for IC50: read-out: IC50; for IC90: read-out: IC90
Procedure, shortened: as §1

[11] = tested on: CNE (nasopharyngeal carcinoma cell); test: as above; type: cell-based; settings: Homo sapiens; for IC50: read-out: IC50; for IC90: read-out: IC90
Procedure, shortened: as §1

[12] = tested on: MGC 803 (human gastric cancer cell); test: as above; type: cell-based; settings: Homo sapiens, MGC-803, 72 h; for IC50: read-out: IC50; for IC90: read-out: IC90
Procedure, shortened: as §1

[13] = tested on: Jurkat (acute lymphoblastic leukemia, ALL); test: MTT growth inhibition of leukemia cells, 72 h; type: cell-based, human; settings: Homo sapiens, 72 h; for IC50: read-out: IC50; for IC90: read-out: IC90
Procedure, shortened: (§2)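 Leukemia cells were seeded at 6000 per well in RPMI-1640 with 10% fetal bovine serum. Tanshinone I derivatives, from 10 mg/mL DMSO stocks diluted in medium, were added at various concentrations on the following day. After 72 h at 37 °C under 5% CO2, viable cells were measured by MTT.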

[14] = tested on: NB4 (acute promyelocytic leukemia, AML); test: MTT growth inhibition of leukemia cells, 72 h; type: cell-based, human; settings: Homo sapiens, NB4, 72 h; for IC50: read-out: IC50; for IC90: read-out: IC90
Procedure, shortened: as §2

[15] = tested on: H9 (acute lymphoblastic leukemia, ALL); test: MTT growth inhibition of leukemia cells, 72 h; type: cell-based, human; settings: Homo sapiens, H9, 72 h; for IC50: read-out: IC50; for IC90: read-out: IC90
Procedure, shortened: as §2

[16] = tested on: Kasumi-1 (acute myeloid leukemia M2 type, AML-M2); test: MTT growth inhibition of leukemia cells, 72 h; type: cell-based, human; settings: Homo sapiens, Kasumi-1, 72 h; for IC50: read-out: IC50; for IC90: read-out: IC90
Procedure, shortened: as §2

[17] = tested on: K562/adr (drug-resistant, chronic myeloid leukemia, CML); test: MTT growth inhibition of leukemia cells, 72 h; type: cell-based, human; settings: Homo sapiens, K562/Adr; for IC50: read-out: IC50; for IC90: read-out: IC90
Procedure, shortened: as §2

Cc1c(CN(C)Cc2ccccc2)oc2c1C(=O)C(=O)c1c-2ccc2c(C)cccc12 [BS-TA-B01]
IC50 [1]: 0.52 mg/L (≈ 1.27 µM) | IC90 [1]: 2.9 mg/L (≈ 7.08 µM) | IC50 [2]: 0.88 mg/L (≈ 2.15 µM) | IC90 [2]: 29.6 mg/L (≈ 72.3 µM) | IC50 (A549 (human lung cancer)): 1.7 mg/L (≈ 4.15 µM) | IC90 (A549 (human lung cancer)): 17 mg/L (≈ 41.5 µM) | IC50 [3]: 0.97 mg/L (≈ 2.37 µM) | IC90 [3]: 3.81 mg/L (≈ 9.3 µM) | IC50 [4]: 1.25 mg/L (≈ 3.05 µM) | IC90 [4]: 9.41 mg/L (≈ 23 µM) | IC50 [5]: 0.43 mg/L (≈ 1.05 µM) | IC90 [5]: 3.73 mg/L (≈ 9.11 µM) | IC50 [6]: 0.81 mg/L (≈ 1.98 µM) | IC90 [6]: 16 mg/L (≈ 39.1 µM) | IC50 (PC-3 (prostate cancer)): 1.83 mg/L (≈ 4.47 µM) | IC90 (PC-3 (prostate cancer)): 16 mg/L (≈ 39.1 µM) | IC50 [7]: 0.17 mg/L (≈ 0.415 µM) | IC90 [7]: 16 mg/L (≈ 39.1 µM) | IC50 (MG63 (osteosarcoma)): 0.38 mg/L (≈ 0.928 µM) | IC90 (MG63 (osteosarcoma)): 14.9 mg/L (≈ 36.5 µM) | improvement of anti-MG63 activity as compared with tanshinone I (MG63 (osteosarcoma); MG63, vs tanshinone I): ~3 fold | IC50 [8]: 1.31 mg/L (≈ 3.2 µM) | IC90 [8]: 16.2 mg/L (≈ 39.6 µM) | IC50 [9]: 5.41 mg/L (≈ 13.2 µM) | IC90 [9]: 22.8 mg/L (≈ 55.8 µM) | IC50 [10]: 0.74 mg/L (≈ 1.81 µM) | IC90 [10]: 8 mg/L (≈ 19.5 µM) | IC50 [11]: 0.817 mg/L (≈ 2 µM) | IC90 [11]: 39 mg/L (≈ 95.2 µM) | IC50 [12]: 0.79 mg/L (≈ 1.93 µM) | IC90 [12]: 7.25 mg/L (≈ 17.7 µM) | IC50 [13]: 0.96 mg/L (≈ 2.34 µM) | IC90 [13]: 5.3 mg/L (≈ 12.9 µM) | IC50 [14]: 0.26 mg/L (≈ 0.635 µM) | IC90 [14]: 0.96 mg/L (≈ 2.34 µM) | IC50 [15]: 0.7 mg/L (≈ 1.71 µM) | IC90 [15]: 2.3 mg/L (≈ 5.62 µM) | IC50 [16]: 0.66 mg/L (≈ 1.61 µM) | IC90 [16]: 1.91 mg/L (≈ 4.66 µM) | IC50 [17]: 1.13 mg/L (≈ 2.76 µM) | IC90 [17]: 2.95 mg/L (≈ 7.2 µM)

CC[N+](C)(Cc1ccc(F)c(Cl)c1)Cc1oc2c(c1C)C(=O)C(=O)c1c-2ccc2c(C)cccc12 (stereo not drawn) [BS-TA-50]
IC50 [1]: 3.86 mg/L | IC90 [1]: 16 mg/L | IC50 [2]: 13.7 mg/L | IC90 [2]: > 16 mg/L | IC50 (A549 (human lung cancer)): 8.9 mg/L | IC90 (A549 (human lung cancer)): > 16 mg/L | IC50 [3]: 8.45 mg/L | IC90 [3]: > 16 mg/L | IC50 [4]: > 16 mg/L | IC90 [4]: > 16 mg/L | IC50 [5]: 8.1 mg/L | IC90 [5]: > 16 mg/L | IC50 [6]: 4.24 mg/L | IC90 [6]: > 16 mg/L | IC50 (PC-3 (prostate cancer)): 10.7 mg/L | IC90 (PC-3 (prostate cancer)): > 16 mg/L | IC50 [7]: 2.5 mg/L | IC90 [7]: > 16 mg/L | IC50 (MG63 (osteosarcoma)): 1.67 mg/L | IC90 (MG63 (osteosarcoma)): > 16 mg/L | IC50 [8]: 7.78 mg/L | IC90 [8]: > 16 mg/L | IC50 [9]: > 16 mg/L | IC90 [9]: > 16 mg/L | IC50 [10]: 4.67 mg/L | IC90 [10]: > 16 mg/L | IC50 [11]: 3.87 mg/L | IC90 [11]: > 16 mg/L | IC50 [12]: 8.91 mg/L | IC90 [12]: > 16 mg/L | IC50 [13]: 4.79 mg/L | IC90 [13]: > 16 mg/L | IC50 [14]: 0.99 mg/L | IC90 [14]: 7 mg/L | IC50 [15]: 6.25 mg/L | IC90 [15]: 15.9 mg/L | IC50 [16]: 5.03 mg/L | IC90 [16]: > 16 mg/L | IC50 [17]: 11.2 mg/L | IC90 [17]: > 16 mg/L

Reference: patent US9328083B2, “2-aminated methylene or 2-esterified methylene tanshinone derivatives, and preparation method and application thereof” (HANGZHOU BENSHENG PHARMACEUTICAL CO., LTD., priority 2011, dated 2016)
